Patent US20220275391A1, “METHODS OF USING ALS INHIBITOR HERBICIDES FOR CONTROL OF UNWANTED VEGETATION IN ALS INHIBITOR HERBICIDE TOLERANT BETA VULGARIS PLANTS” (priority 2010, published 2022)

How the values were obtained:
KLARINA = experiment: Field trial, phytotoxicity scoring on ALS inhibitor sensitive reference variety KLARINA; details: BBCH 14
Text: (§3) The water quantity applied in the various applications equaled 200 l/ha. At 8, 14, 16, 17, 28, and 31 days (as indicated in the various Tables) after application (DAA) of the respective ALS inhibitor herbicide(s), the damages (phytotoxicity/phyto) on the different sugar beet plants were scored according to the scale from 0% to 100%.
(§4) In this context, “0%” means “no phytotoxicity/phyto” and “100%” means plants were completely killed.

BERETTA = experiment: Field trial, phytotoxicity scoring on ALS inhibitor sensitive reference variety BERETTA; type: in vivo, Beta vulgaris; details: BBCH 14
Text: as §3, §4

SB574TL based sugar beet = experiment: Field trial, phytotoxicity scoring on homozygous SB574TL mutant sugar beet; type: in vivo, Beta vulgaris; details: BBCH 14
Text: Based on SB574TL, F4—F6 seeds conferring the mutant allele of the endogenous ALS gene in the homozygous state were applied for further testing.

wild type plants = experiment: Greenhouse herbicide treatment of plants regenerated from wild type cell cultures; details: lowest doses tested (range 7-70 g a.i./ha foramsulfuron, 1-10 g a.i./ha iodosulfuron-methyl-sodium, mixtures 7:1)
Protocol: (§1) During the first 10-15 days after transfer into soil containing substrate the plants were kept in an environment with high air humidity. During and after they were weaned to normal greenhouse air humidity regimes the plants were kept in the greenhouse under artificial light (12 h) at 20+−3° C./15+−2° C. day/night temperatures.
(§2) The herbicide doses tested were equivalent to 7-70 g a.i./ha for foramsulfuron and 1-10 g a.i./ha for iodosulfuron-methyl-sodium.

[1] = tested on: regenerated plants from foramsulfuron tolerant cell culture (SB574TL); experiment: Greenhouse herbicide treatment of plants regenerated from the foramsulfuron tolerant cell culture
Protocol: From this clone (SB574TL), shoots were regenerated in presence of the ALS inhibitor herbicide and then the shoots were transferred to MS medium containing 0.05 mg/l Naphthalene acetic acid (NAA).
as §1, §2

[2] = tested on: sugar beet cell cultures (genotype 7T9044); experiment: Selection of sugar beet cell colonies on foramsulfuron medium; type: cell-based, Beta vulgaris; details: 3×10^−6 M of foramsulfuron in medium
Text: Sugar beet cell cultures were initiated from seedlings of a diploid sugar beet genotype 7T9044 (as, for example, described by Alexander Dovzhenko, PhD Thesis, Title: “Towards plastid transformation in rapeseed (Brassica napus L.) and sugarbeet (Beta vulgaris L.)”, Ludwig-Maximilians-Universität München, Germany, 2001). Callus obtained therefrom was exposed to 10^−7 M foramsulfuron. Surviving and growing cell colonies were numbered and transferred after 4-6 weeks onto fresh medium containing 3×10^−7 M of the inhibitor. One of these cell colonies was able to grow not only at this concentration of the inhibitor but even in presence of 3×10^−6 M of foramsulfuron [CAS RN 173159-57-4].

Compound: COc1cc(OC)n2nc(S(=O)(=O)Nc3c(Cl)ccc(C)c3Cl)nc2n1 [Metosulam (A3-5), metosulam]
- % phyto (KLARINA; 30 g/ha, 8 days): 90%
- % phyto (KLARINA; 30 g/ha, 14 days): 97%
- % phyto (KLARINA; 30 g/ha, 28 days): 93%

Compound: CC(C)C1(C)N=C(c2nc3ccccc3cc2C(=O)O)NC1=O (centres unmarked) [Imazaquin (B1-5), imazaquin]
- % phyto (BERETTA; 100 g/ha, 8 days): 80%
- % phyto (BERETTA; 100 g/ha, 16 days): 98%
- % phyto (BERETTA; 100 g/ha, 38 days): 100%
- % phyto (SB574TL based sugar beet; 100 g/ha, 8 days (Table 3)): 0%
- % phyto (SB574TL based sugar beet; 100 g/ha, 16 days): 0%
- % phyto (SB574TL based sugar beet; 100 g/ha, 38 days): 0%

Compound: COc1cc(OC)nc(Oc2cccc(Oc3nc(OC)cc(OC)n3)c2C(=O)O)n1 [Bispyribac-sodium (C1-1), bispyribac-sodium]
- % phyto (KLARINA; 50 g/ha, 8 days): 90%
- % phyto (KLARINA; 50 g/ha, 14 days): 98%
- % phyto (KLARINA; 50 g/ha, 28 days): 99%
- % phyto (SB574TL based sugar beet; 50 g/ha, 8 days): 23%
- % phyto (SB574TL based sugar beet; 50 g/ha, 14 days): 30%
- % phyto (SB574TL based sugar beet; 50 g/ha, 28 days): 0%

Compound: COC(=O)c1sccc1S(=O)(=O)NC(=O)Nc1nc(C)nc(OC)n1 [Thifensulfuron-methyl (A1-29), thifensulfuron-methyl]
- % phyto (KLARINA; 7.5 g/ha, 8 days): 90%
- % phyto (KLARINA; 7.5 g/ha, 14 days): 98%
- % phyto (KLARINA; 7.5 g/ha, 28 days): 100%

Compound: COc1cc(OC)nc(NC(=O)NS(=O)(=O)c2ncccc2C2=NOCCO2)n1.[Na+] [(A1-87)]
- % phyto (KLARINA; 15 g/ha, 8 days): 90%
- % phyto (KLARINA; 15 g/ha, 14 days): 97%
- % phyto (KLARINA; 15 g/ha, 28 days): 99%
- % phyto (KLARINA; 30 gai/ha, 8 DAA): 83%
- % phyto (KLARINA; 30 gai/ha, 17 DAA): 100%
- % phyto (KLARINA; 30 gai/ha, 31 DAA): 100%
- % phyto (SB574TL based sugar beet; 15 g/ha, 8 days): 0%
- % phyto (SB574TL based sugar beet; 15 g/ha, 14 days): 0%
- % phyto (SB574TL based sugar beet; 15 g/ha, 28 days): 0%
- % phyto (SB574TL based sugar beet; 30 gai/ha, 8 DAA): 0%
- % phyto (SB574TL based sugar beet; 30 gai/ha, 17 DAA): 0%
- % phyto (SB574TL based sugar beet; 30 gai/ha, 31 DAA): 0%

Compound: COc1cc(OC)nc(NC(=O)NS(=O)(=O)c2ncccc2C(=O)N(C)C)n1 [Nicosulfuron (A1-20), nicosulfuron]
- % phyto (KLARINA; 60 g/ha, 8 days): 90%
- % phyto (KLARINA; 60 g/ha, 14 days): 98%
- % phyto (KLARINA; 60 g/ha, 28 days): 100%
- % phyto (SB574TL based sugar beet; 60 g/ha, 8 days): 0%
- % phyto (SB574TL based sugar beet; 60 g/ha, 14 days): 0%
- % phyto (SB574TL based sugar beet; 60 g/ha, 28 days): 0%

Compound: COC(=O)c1ccccc1S(=O)(=O)NC(=O)Nc1nc(C)nc(OC)n1 [Metsulfuron-methyl (A1-28), metsulfuron-methyl]
- % phyto (KLARINA; 8 g/ha, 8 days): 88%
- % phyto (KLARINA; 8 g/ha, 14 days): 98%
- % phyto (KLARINA; 8 g/ha, 28 days): 99%

Compound: COc1cc(OC)nc(NC(=O)NS(=O)(=O)c2ncccc2OCC(F)(F)F)n1 [Trifloxisulfuron-sodium (A1-32), trifloxysulfuron]
- % phyto (BERETTA; 15 g/ha, 8 days): 80%
- % phyto (BERETTA; 15 g/ha, 16 days): 98%
- % phyto (BERETTA; 15 g/ha, 38 days): 100%
- % phyto (SB574TL based sugar beet; 15 g/ha, 8 days (Table 3)): 0%
- % phyto (SB574TL based sugar beet; 15 g/ha, 16 days): 0%
- % phyto (SB574TL based sugar beet; 15 g/ha, 38 days): 0%

Compound: COC(=O)c1ccc(I)cc1S(=O)(=O)[N-]C(=O)Nc1nc(C)nc(OC)n1.[Na+] [Iodosulfuron-methyl-sodium (A1-16), iodosulfuron-methyl-sodium]
- % phyto (KLARINA; 7 g/ha, 8 days): 90%
- % phyto (KLARINA; 7 g/ha, 14 days): 97%
- % phyto (KLARINA; 7 g/ha, 28 days): 100%
- % phyto (KLARINA; 15 gai/ha, 8 DAA): 83%
- % phyto (KLARINA; 15 gai/ha, 17 DAA): 98%
- % phyto (KLARINA; 15 gai/ha, 31 DAA): 100%
- % phyto (SB574TL based sugar beet; 7 g/ha, 8 days): 0%
- % phyto (SB574TL based sugar beet; 7 g/ha, 14 days): 0%
- % phyto (SB574TL based sugar beet; 7 g/ha, 28 days): 0%
- % phyto (SB574TL based sugar beet; 15 gai/ha, 8 DAA): 0%
- % phyto (SB574TL based sugar beet; 15 gai/ha, 17 DAA): 0%
- % phyto (SB574TL based sugar beet; 15 gai/ha, 31 DAA): 0%
- effect of herbicide treatment on wild type plants (wild type plants): killed
- tolerance of regenerated plants to herbicide treatment ([1]; highest doses tested (range 7-70 g a.i./ha foramsulfuron, 1-10 g a.i./ha iodosulfuron-methyl-sodium, mixtures in the ratio 7:1), greenhouse): tolerated even the highest herbicide doses

Compound: COC(=O)c1ccccc1S(=O)(=O)NC(=O)Nc1nc(C)cc(C)n1 [Sulfometuron-methyl (A1-27), sulfometuron-methyl]
- % phyto (BERETTA; 60 g/ha, 8 days): 80%
- % phyto (BERETTA; 60 g/ha, 16 days): 97%
- % phyto (BERETTA; 60 g/ha, 38 days): 100%
- % phyto (SB574TL based sugar beet; 60 g/ha, 8 days (Table 3)): 0%
- % phyto (SB574TL based sugar beet; 60 g/ha, 16 days): 3%
- % phyto (SB574TL based sugar beet; 60 g/ha, 38 days): 0%

Compound: COc1ncc(F)c2nc(S(=O)(=O)Nc3c(F)cccc3F)nn12 [Florasulam (A3-3), florasulam]
- % phyto (BERETTA; 10 g/ha, 8 days): 80%
- % phyto (BERETTA; 10 g/ha, 16 days): 98%
- % phyto (BERETTA; 10 g/ha, 38 days): 98%
- % phyto (SB574TL based sugar beet; 10 g/ha, 8 days (Table 3)): 0%
- % phyto (SB574TL based sugar beet; 10 g/ha, 16 days): 0%
- % phyto (SB574TL based sugar beet; 10 g/ha, 38 days): 0%

Compound: COc1nn(C(=O)[N-]S(=O)(=O)c2ccccc2OC(F)(F)F)c(=O)n1C.[Na+] [Flucarbazone-sodium (A2-1), flucarbazone-sodium]
- % phyto (BERETTA; 40 g/ha, 8 days): 80%
- % phyto (BERETTA; 40 g/ha, 16 days): 89%
- % phyto (BERETTA; 40 g/ha, 38 days): 89%
- % phyto (SB574TL based sugar beet; 40 g/ha, 8 days (Table 3)): 0%
- % phyto (SB574TL based sugar beet; 40 g/ha, 16 days): 0%
- % phyto (SB574TL based sugar beet; 40 g/ha, 38 days): 0%

Compound: CCS(=O)(=O)c1cccnc1S(=O)(=O)NC(=O)Nc1nc(OC)cc(OC)n1 [Rimsulfuron (A1-26), rimsulfuron]
- % phyto (KLARINA; 12.5 g/ha, 8 days): 81%
- % phyto (KLARINA; 12.5 g/ha, 14 days): 85%
- % phyto (KLARINA; 12.5 g/ha, 28 days): 76%

Compound: COc1cc(OC)nc(NC(=O)NS(=O)(=O)c2cc(NC=O)ccc2C(=O)N(C)C)n1 [Foramsulfuron (A1-13), foramsulfuron]
- growth of selected cell colony (clone SB574TL) in presence of the inhibitor [2]: able to grow
- % phyto (KLARINA; 25 g/ha, 8 days): 85%
- % phyto (KLARINA; 25 g/ha, 14 days): 83%
- % phyto (KLARINA; 25 g/ha, 28 days): 86%
- % phyto (KLARINA; 50 g/ha, 8 days): 90%
- % phyto (KLARINA; 50 g/ha, 14 days): 92%
- % phyto (KLARINA; 50 g/ha, 28 days): 94%
- effect of herbicide treatment on wild type plants (wild type plants): killed
- tolerance of regenerated plants to herbicide treatment ([1]; in vivo): tolerated even the highest herbicide doses

Compound: COC(=O)c1csc(C)c1S(=O)(=O)NC(=O)n1nc(OC)n(C)c1=O [Thiencarbazone-methyl (A2-3), thiencarbazone-methyl]
- % phyto (KLARINA; 15 g/ha, 8 days): 90%
- % phyto (KLARINA; 15 g/ha, 14 days): 97%
- % phyto (KLARINA; 15 g/ha, 28 days): 100%
- % phyto (KLARINA; 30 g/ha, 8 days): 90%
- % phyto (KLARINA; 30 g/ha, 14 days): 97%
- % phyto (KLARINA; 30 g/ha, 28 days): 100%

Compound: COCc1cnc(C2=NC(C)(C(C)C)C(=O)N2)c(C(=O)O)c1 (centres unmarked) [Imazamox (B1-2), imazamox]
- % phyto (KLARINA; 40 g/ha, 8 days): 90%
- % phyto (KLARINA; 40 g/ha, 14 days): 97%
- % phyto (KLARINA; 40 g/ha, 28 days): 99%
- % phyto (SB574TL based sugar beet; 40 g/ha, 8 days): 0%
- % phyto (SB574TL based sugar beet; 40 g/ha, 14 days): 0%
- % phyto (SB574TL based sugar beet; 40 g/ha, 28 days): 0%

Compound: COC(=O)c1ccc(CNS(C)(=O)=O)cc1S(=O)(=O)NC(=O)Nc1nc(OC)cc(OC)n1 [Mesosulfuron-methyl (A1-17), mesosulfuron-methyl]
- % phyto (KLARINA; 60 g/ha, 8 days): 90%
- % phyto (KLARINA; 60 g/ha, 14 days): 97%
- % phyto (KLARINA; 60 g/ha, 28 days): 99%

Compound: COc1nc(C)nc(NC(=O)NS(=O)(=O)c2ccccc2OCCCl)n1 [Triasulfuron (A1-30), triasulfuron]
- % phyto (BERETTA; 30 g/ha, 8 days): 80%
- % phyto (BERETTA; 30 g/ha, 16 days): 98%
- % phyto (BERETTA; 30 g/ha, 38 days): 100%
- % phyto (SB574TL based sugar beet; 30 g/ha, 8 days (Table 3)): 0%
- % phyto (SB574TL based sugar beet; 30 g/ha, 16 days): 0%
- % phyto (SB574TL based sugar beet; 30 g/ha, 38 days): 0%

Compound: COC(=O)c1ccccc1S(=O)(=O)NC(=O)N(C)c1nc(C)nc(OC)n1 [Tribenuron-methyl (A1-31), tribenuron-methyl]
- % phyto (KLARINA; 30 g/ha, 8 days): 91%
- % phyto (KLARINA; 30 g/ha, 14 days): 98%
- % phyto (KLARINA; 30 g/ha, 28 days): 100%

Compound: COc1nc(C)nc(NC(=O)NS(=O)(=O)c2ccccc2I)n1.[Na] [(A1-41), 2-iodo-N-[(4-methoxy-6-methyl-1,3,5-triazinyl)carbamoyl]benzene-sulfonamide sodium salt]
- % phyto (KLARINA; 30 g/ha, 8 days): 90%
- % phyto (KLARINA; 30 g/ha, 14 days): 98%
- % phyto (KLARINA; 30 g/ha, 28 days): 100%
- % phyto (SB574TL based sugar beet; 30 g/ha, 8 days): 14%
- % phyto (SB574TL based sugar beet; 30 g/ha, 14 days): 10%
- % phyto (SB574TL based sugar beet; 30 g/ha, 28 days): 0%
